Data taken from US6177438A, “Morphinan derivatives and pharmaceutical use thereof” (priority 1993, dated 2001).
Structures can show the parent of a compound that is named as a salt. Where two headings read alike, the source gives them in different places.

Columns and labels:
[1] = tested on: extracted mouse vas deferens preparation; assay: Opioid activity test using an extracted mouse vas deferens preparation (suppression of electrically induced contractions); set-up: species or system male ddy mouse; details: electrical stimulus 0.1 Hz, 37° C.
Description: (§1) A male ddy mouse was used in this test. The vas deferens extracted from the animal was suspended in a Magnus tube filled with Krebes-Henseleit solution (NaCl 118 mM; KCl 4.7 mM; CaCl2 2.5 mM; KH2 PO4 1.1 mM; NaHCO3 25 mM; Glucose 11 mM) warmed to 37° C. and ventilated with 5% carbon dioxide and 95% oxygen. Electrical stimulus was performed at 0.1 Hz for 5.0 ms by means of ring-shaped platinum electrodes located above and below. Tissue contractions were recorded on a polygraph using an isometric transducer.
(§2) After adequately washing with nutrient solution and the contraction reaction stabilized, the μ agonist, naloxone, the δ agonist, NTI, or the κ agonist, norBNI, was added after which the test compound was again cumulatively added after roughly 20 minutes. The Ke value was calculated using the following calculation formula from the difference in the efficacies of both agonists.

[2] = target: T1, μ receptor (Mus musculus, UniProt P42866); assay: Opioid activity test using an extracted mouse vas deferens preparation, Ke with naloxone; set-up: species or system male ddy mouse; details: naloxone added
T1 construct: naloxone as mu antagonist (printed 'agonist')
Description: as §1, §2
(§3) Ke=[Conc. of added agonist]/(IC50 ratio-1)
(§4) IC50 ratio=IC50 in the presence of agonist/IC50 in the absence of agonist

[3] = target: T2, δ receptor (Mus musculus, UniProt P32300); set-up: species or system male ddy mouse
T2 construct: The vas deferens extracted from the animal was suspended in a Magnus tube; from tissue; host or cells: mouse (male ddy) vas deferens

[4] = target: T3, κ receptor (Mus musculus, UniProt P33534); assay: Opioid activity test using an extracted mouse vas deferens preparation, Ke with norBNI; set-up: species or system male ddy mouse; details: for receptor selectivity of agonist (κ): in words; for Ke, norBNI: κ, norBNI added
T3 construct: from tissue; host or cells: mouse (male ddy) vas deferens
Description: as §1, §2, §3, §4

[5] = tested on: acetic acid-induced writhing in ddy mice; assay: animal or person; format: in vivo, 5 week old ddy mice; details: for ED50: s.c. 15 minutes before acetic acid; for analgesic activity: s.c., in words
Description: 5 week old ddy mice were used in this test. After intraperitoneal administration of 0.1 ml of 0.6% aqueous acetic acid per 10 g of body weight, the number of writhing reactions that occurred in 10 minutes starting 10 minutes after administration was evaluated for the indicator. The test drug was administered subcutaneously into the backs of the animals 15 minutes before administration of acetic acid.

[6] = Diuretic action (urine output for 5 hours after physiological saline loading in rats); format: in vivo, male Wistar rats; details: for ED (200% urine output) / ED (500% urine output): Rattus norvegicus, sc, 5 hours after saline 20 ml/kg p.o.; for ED (200% urine output): dose giving urine output of 200 (non-dosed group = 100); for ED (500% urine output): dose giving urine output of 500 (non-dosed group = 100); for Diuretic action (in words): s.c., from ED200 values
Description: 7-8 week old male Wistar rats were used in this test after prohibiting from drinking water for 1 hour before the start of testing. After discharging any urine accumulated in the bladder by gently stimulating the lower abdomens of the animals, the drug was administered subcutaneously. After 30 minutes, the animals were then forcibly given 20 ml/kg of physiological saline orally. The animals were placed in metabolic cages immediately after administration of the drug (2 animals/cage) and urine output for 5 hours after loading with physiological saline was measured. Drug efficacy was expressed in the form of those doses resulting in urine outputs of 200 and 500, respectively, when the urine output of a non-dosed group was taken to be 100. Those doses were expressed as the ED200 and ED500 values, respectively.

[7] = mouse vas deferens, δ, NTI added
[8] = Mus musculus, sc, read-out: ED50

T3 sequence (P33534 whole entry): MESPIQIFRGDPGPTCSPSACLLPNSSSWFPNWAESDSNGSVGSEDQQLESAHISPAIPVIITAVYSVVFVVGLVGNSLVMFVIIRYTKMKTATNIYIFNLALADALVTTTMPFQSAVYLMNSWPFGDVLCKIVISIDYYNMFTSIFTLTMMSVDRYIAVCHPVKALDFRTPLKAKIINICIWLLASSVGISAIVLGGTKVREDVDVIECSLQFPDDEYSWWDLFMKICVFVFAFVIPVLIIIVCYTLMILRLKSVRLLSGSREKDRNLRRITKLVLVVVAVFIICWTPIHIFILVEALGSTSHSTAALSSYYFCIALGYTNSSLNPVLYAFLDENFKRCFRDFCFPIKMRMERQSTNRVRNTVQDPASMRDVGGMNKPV
T2 sequence (P32300 whole entry): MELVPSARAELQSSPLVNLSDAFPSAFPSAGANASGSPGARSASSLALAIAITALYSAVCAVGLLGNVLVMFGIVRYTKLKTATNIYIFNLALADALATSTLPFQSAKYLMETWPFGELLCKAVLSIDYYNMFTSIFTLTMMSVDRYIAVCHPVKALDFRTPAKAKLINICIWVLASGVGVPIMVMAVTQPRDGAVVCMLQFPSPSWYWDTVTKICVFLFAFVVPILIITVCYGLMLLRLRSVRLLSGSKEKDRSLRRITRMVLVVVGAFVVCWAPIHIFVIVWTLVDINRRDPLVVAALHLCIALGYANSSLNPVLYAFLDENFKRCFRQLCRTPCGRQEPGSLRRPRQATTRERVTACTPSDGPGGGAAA
T1 sequence (P42866 whole entry): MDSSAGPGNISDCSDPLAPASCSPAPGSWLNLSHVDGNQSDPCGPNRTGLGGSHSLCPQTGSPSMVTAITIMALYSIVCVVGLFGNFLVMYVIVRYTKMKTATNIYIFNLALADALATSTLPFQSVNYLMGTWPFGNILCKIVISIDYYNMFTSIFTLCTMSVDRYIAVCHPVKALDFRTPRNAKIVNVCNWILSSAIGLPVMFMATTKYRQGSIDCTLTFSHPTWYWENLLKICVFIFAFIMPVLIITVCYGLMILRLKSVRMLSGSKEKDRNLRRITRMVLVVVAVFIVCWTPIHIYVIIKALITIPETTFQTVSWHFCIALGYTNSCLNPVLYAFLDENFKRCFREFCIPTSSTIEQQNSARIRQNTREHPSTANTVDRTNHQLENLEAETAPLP

SMILES	IC50 [1]	Ke, Naloxone [2]	Ke, NTI [3, 7]	receptor selectivity of agonist (κ) [4]	Ke, norBNI [4]	ED50 [5, 8]	analgesic activity [5]	ED (200% urine output) [6]	ED (500% urine output) [6]	Diuretic action (in words) [6]	Ke, NTI [3]	ED50 [5]	receptor selectivity of agonist (δ) ([3]; mouse vas deferens, in words)
CCCCOC(=O)N(C)[C@H]1CC[C@@]2(O)[C@H]3Cc4ccc(O)c5c4[C@@]2(CCN3CC2CC2)[C@H]1O5 [Compound 47, 17-cyclopropylmethyl-4,5α-epoxy-3,14β-dihydroxy-6α-(N-methylbutyroxycarbamido)morphinan.cndot.tartrate]	0.439 nM	63.5 nM	10.4 nM	selective agonists for κ receptors	0.140 nM	0.52 µg/kg	particularly strong analgesic activity	1.6 µg/kg	–	–	–	–	–
CN(C(=O)/C=C/c1cccc(F)c1)[C@H]1CC[C@@]2(O)[C@H]3Cc4ccc(O)c5c4[C@@]2(CCN3CC2CC2)[C@H]1O5 [Compound 96, 17-cyclopropylmethyl-3,14β-dihydroxy-4,5α-epoxy-6α-(N-methyl-3-fluorocinnamamido)morphinan.cndot.tartrate]	0.346 nM	32.5 nM	1.61 nM	–	4.21 nM	0.86 µg/kg	particularly strong analgesic activity	1.3 µg/kg	54.9 µg/kg	–	–	–	–
CN(C(=O)/C=C/c1ccc(C(F)(F)F)cc1)[C@@H]1CC[C@@]2(O)[C@H]3Cc4ccc(O)c5c4[C@@]2(CCN3CC2CC2)[C@H]1O5 [Compound 73, 17-cyclopropylmethyl-3,14β-dihydroxy-4,5α-epoxy-6β-(N-methyl-4-trifluoromethylcinnamamido)morphinan.cndot.tartrate]	0.072 nM	524 nM	78 nM	selective agonists for κ receptors	0.272 nM	23 µg/kg	–	–	–	–	–	–	–
CN(C(=O)OCc1ccccc1)[C@H]1CC[C@@]2(O)[C@H]3Cc4ccc(O)c5c4[C@@]2(CCN3CC2CC2)[C@H]1O5 [Compound 42, 17-cyclopropylmethyl-3,14β-dihydroxy-4,5α-epoxy-6α-(N-methylbenzyloxycarbamido)morphinan.cndot.tartrate]	0.251 nM	186 nM	63.5 nM	selective agonists for κ receptors	0.905 nM	1.36 µg/kg	particularly strong analgesic activity	0.85 µg/kg	6.1 µg/kg	extremely strong diuretic action	–	–	–
CN(C(=O)/C=C/c1ccoc1)[C@H]1CC[C@@]2(O)[C@H]3Cc4ccc(O)c5c4[C@@]2(CCN3CC2CC2)[C@H]1O5 [Compound 89, 17-cyclopropylmethyl-3,14β-dihydroxy-4,5α-epoxy-6α-[N-methyl-trans-3-(3-furyl)acrylamido]morphinan.cndot.tartrate]	0.0934 nM	18.3 nM	–	selective agonists for κ receptors	0.85 nM	4.71 µg/kg	–	1.2 µg/kg	16.2 µg/kg	–	15.6 nM	–	–
CN(C(=O)/C=C/c1cccc(Cl)c1)[C@@H]1CC[C@@]2(O)[C@H]3Cc4ccc(O)c5c4[C@@]2(CCN3CC2CC2)[C@H]1O5 [Compound 154, 17-cyclopropylmethyl-3,14β-dihydroxy-4,5α-epoxy-6β-(N-methyl-3-chlorocinnamamido)morphinan hydrochloride]	–	43.1 nM	–	selective agonists for κ receptors	0.133 nM	1 µg/kg	particularly strong analgesic activity	2.14 µg/kg	270 µg/kg	–	31.5 nM	–	–
Cc1cccc(C#CC(=O)N(C)[C@@H]2CC[C@@]3(O)[C@H]4Cc5ccc(O)c6c5[C@@]3(CCN4CC3CC3)[C@H]2O6)c1.Cl [Compound 172, 17-cyclopropylmethyl-3,14β-dihydroxy-4,5α-epoxy-6β-[N-methyl-3-(3-methylphenyl)propiolamido]morphinan hydrochloride]	–	16.16 nM	17.57 nM	selective agonists for κ receptors	0.163 nM	7.9 µg/kg	–	3.23 µg/kg	3030 µg/kg	–	–	–	–
CC(C)CN(C(=O)/C=C/c1cccc(C(F)(F)F)c1)[C@@H]1CC[C@@]2(O)[C@H]3Cc4ccc(O)c5c4[C@@]2(CCN3CC2CC2)[C@H]1O5 [Compound 166, 17-cyclopropylmethyl-3,14β-dihydroxy-4,5α-epoxy-6β-(N-isobutyl-3-trifluoromethylcinnamamido)morphinan 0.5 tartrate]	0.028 nM	36.9 nM	20.5 nM	–	4.78 nM	–	–	–	–	–	–	–	–
CN(C(=O)/C=C/c1ccc(Cl)cc1)[C@@H]1CC[C@@]2(O)[C@H]3Cc4ccc(O)c5c4[C@@]2(CCN3CC2CC2)[C@H]1O5 [Compound 152, 17-cyclopropylmethyl-3,14β-dihydroxy-4,5α-epoxy-6β-(N-methyl-4-chlorocinnamamido)morphinan hydrochloride]	–	17.5 nM	–	selective agonists for κ receptors	0.039 nM	–	–	0.71 µg/kg	9.53 µg/kg	extremely strong diuretic action	35.1 nM	3.8 µg/kg	–
CN(C(=O)C#Cc1ccc(C(F)(F)F)cc1)[C@H]1CC[C@@]2(O)[C@H]3Cc4ccc(O)c5c4[C@@]2(CCN3CC2CC2)[C@H]1O5 [Compound 126, 17-Cyclopropylmethyl-3,14β-dihydroxy-4,5α-epoxy-6α-[N-methyl-3-(4-trifluoromethylphenyl)propiolamido]morphinan.cndot.0.5 tartrate]	0.969 nM	40.2 nM	0.0065 nM	–	1.20 nM	–	–	–	–	–	–	–	selective agonists for δ receptors
C=CCN1CC[C@]23c4c5ccc(O)c4O[C@H]2[C@@H](N(C)C(=O)Cc2ccc(Cl)c(Cl)c2)CC[C@@]3(O)[C@H]1C5 [Compound 122, 17-allyl-3,14β-dihydroxy-4,5α-epoxy-6α-(N-methyl-3,4-dichlorophenylacetamido)morphinan.cndot.hydrochloride]	3.01 nM	59.5 nM	42.7 nM	selective agonists for κ receptors	0.358 nM	340 µg/kg	–	–	–	–	–	–	–
CC(=O)Oc1ccc2c3c1O[C@H]1[C@H](N(C)C(=O)/C=C/c4ccccc4)CC[C@@]4(O)[C@@H](C2)N(CC2CC2)CC[C@]314 [Compound 140, 17-Cyclopropylmethyl-3-acetoxy-14β-hydroxy-4,5α-epoxy-6β-(N-methylcinnamamido)morphinan.cndot.tartrate]	0.413 nM	320 nM	261 nM	selective agonists for κ receptors	1.06 nM	–	–	–	–	–	–	3.4 µg/kg	–
CN(C(=O)/C=C/c1cccc(Br)c1)[C@@H]1CC[C@@]2(O)[C@H]3Cc4ccc(O)c5c4[C@@]2(CCN3CC2CC2)[C@H]1O5 [Compound 151, 17-cyclopropylmethyl-3,14β-dihydroxy-4,5α-epoxy-6β-(N-methyl-3-bromocinnamamido)morphinan hydrobromide]	–	0.94 nM	–	selective agonists for κ receptors	0.028 nM	4.1 µg/kg	–	4.45 µg/kg	1560 µg/kg	–	1.65 nM	–	–
